# Data: US12290565B2, “Methods of using anti-PSGL-1 antibodies in combination with JAK inhibitors to treat T-cell mediated inflammatory diseases or cancers” (AltruBio Inc., priority 2021, dated 2025)
# Like-named read-outs stand apart in the source and are kept apart here.
# B1: h9F9: anti-PSGL-1 antibody; heavy chain SEQ ID NO:35, light chain SEQ ID NO:39 (antibody)
# heavy: EVQLVESGGGLVQPGGSLKLSCAASGFTFNTNAMNWVRQAPGKGLEWVARIRSKSNNYATYYADSVKDRFTISRDDSKSIIYLQMNSLKTEDTGIYYCVRGGSYWYFDVWGTGTTVTVSSASTKGPSVFPLAPCSRSTSESTAALGCLVKDYFPEPVTVSWNSGALTSGVHTFPAVLQSSGLYSLSSVVTVPSSSLGTKTYTCNVDHKPSNTKVDKRVESKYGPPCPPCPAPPVAGGPSVFLFPPKPKDTLMISRTPEVTCVVVDVSQEDPEVQFNWYVDGVEVHNAKTKPREEQFNSTYRVVSVLTVLHQDWLNGKEYKCKVSNKGLPSSIEKTISKAKGQPREPQVYTLPPSQEEMTKNQVSLTCLVKGFYPSDIAVEWESNGQPENNYKTTPPVLDSDGSFFLYSRLTVDKSRWQEGNVFSCSVMHEALHNHYTQKSLSLSLG
# light: DVIMTQSPLSLPVSLGQPASISCRSSQSIVNSNGNTYLEWYLQKPGQSPRLLIYKVSNRFSGVPDRFSGSGSGTDFTLKISRVEAEDVGVYYCFQGSHVPWTFGGGTKLEIKRTVAAPSVFIFPPSDEQLKSGTASVVCLLNNFYPREAKVQWKVDNALQSGNSQESVTEQDSKDSTYSLSSTLTLSKADYEKHKVYACEVTHQGLSSPVTKSFNRGEC
# Experiments:
# activated T cells [1] = assay: T cell apoptosis assay (Annexin V/PI FACS), 15A7H and/or ruxolitinib; assay type: cell-based, human; details: ruxolitinib alone, 0.122-10 μM, 48 hours
# Experimental: T cell stimulation was achieved through Phytohemagglutinin-L (PHA) treatment prior to the apoptosis assays described below. In brief, human blood samples used in the study were obtained from heathy human donors. Peripheral blood mononuclear cells (PBMCs) were freshly isolated from whole blood by Ficoll-Hypaque gradient centrifugation (Ficoll-Paque PLUS, GE Healthcare, Cat #17-1440-03) at 2400 revolutions per minute (rpm) for 15 minutes at room temperature. The buffy coat layer containing mononuclear cells was collected and washed 3 times with phosphate-buffered saline (PBS) to minimize platelet contamination. […]
# Fluorescence-activated cell sorting (FACS) analysis using the Annexin V/propidium iodide (PI) staining method was used to determine the apoptotic rate in drug- and control-treated cells. […]
# Samples were run on a flow cytometer (BD LSR scanner; BD Biosciences, San Diego), and cell viability and apoptosis were calculated using a quadrant on the Annexin-V-FITC/PI histogram. Living cells were identified as those negatively stained for both fluorescence dyes, early apoptotic cells were identified as those only Annexin-V-FITC-positive, necrotic cells were identified as those only PI-positive, and late apoptotic cells were identified as those positively stained for both fluorescence dyes. […]
# [2] = test system: xenogeneic GvHD in ASID mice engrafted with human PBMCs; assay: Xenogeneic graft-versus-host disease (GvHD) mouse model, survival; assay type: in vivo; details: ruxolitinib 45 mg/kg oral twice daily 15 days and/or 15A7H 10 mg/kg i.v. every 3 to 4 days, 5 doses
# Experimental: 8-9 weeks old female Advanced Severe Immuno-Deficiency (ASID) mice (NOD.Cg-Prkdc^scidIl2rg^tm1Wjl/YckNarl; NLAC NARLabs Taiwan) received a total body irradiation dose of 2.0 Gy and were engrafted with 3×10^6 human PBMCs by tail vein injection at 24 hours post irradiation. The mice were kept under pathogen-free conditions and reared under standardized methods as temperature set at 22±1° C. with a 12-hour daylight/dark cycle and full access to food and water. Experimental animals were randomly divided into treatment groups after receiving a minimum of 3 days of acclimatization to the environment.
# Xenogeneic GvHD (xGvHD) was induced in ASID mice receiving 3×10^6 human PBMCs (n=5-7 per group). Post 72 hours of human PBMC engraftment, ruxolitinib at 45 mg/kg or vehicle was orally administered twice daily for 15 days, as well as anti-PSGL-1 15A7H antibody at 10 mg/kg or vehicle was intravenously administered every 3 to 4 days for total 5 doses. Mice were assessed for survival daily. The time of the treatment initiated was designated as Day 1.
# activated T cells [3] = assay: Fixed-ratio combination cytotoxicity assay, ruxolitinib + 15A7H (Chou-Talalay, Calcusyn); assay type: cell-based, human; details: for EC50: Homo sapiens, T-cell; for DRIRUXO (Dose-Reduction Index): EC50 level
# Experimental: T cell stimulation was achieved through Phytohemagglutinin-L (PHA) treatment prior to the apoptosis assays described below. In brief, human blood samples used in the study were obtained from heathy human donors. […] The buffy coat layer containing mononuclear cells was collected and washed 3 times with phosphate-buffered saline (PBS) to minimize platelet contamination.
# Activated T cells were seeded in 96-well plates at 1-1.5×10^5 cells/mL and were treated with ruxolitinib and antibody 15A7H alone, or in combination at fixed concentration ratios. For the combination of ruxolitinib and antibody 15A7H, fixed ratios at 3.3:1 and 1.1:1 were tested on T cells from four donors. In addition, a fixed ratio of ruxolitinib and antibody 15A7H of 0.37:1 was tested on T cells from two donors.
# Cell apoptosis was measured using an Annexin-V FITC Apoptosis Detection Kit (Strong Biotech, AVK250), according to the manufacturer's instructions.
# Results were expressed as apoptosis fractions (fraction affected), based on the measured fluorescence counts of treated samples, compared with that of untreated controls. Seven diagonals representing various dose-effect curves with fixed drug ratios were used to measure the combination indexes (CI) for each of the combinations with Calcusyn software (Biosoft). The combinatorial effect was defined as “synergistic”, “additive” or “antagonistic” when CI was <1, 1 and >1, respectively.
# activated T cells [4] = assay: Fixed-ratio combination cytotoxicity assay, ruxolitinib + LH10, c43B6 or h9F9; assay type: cell-based; details: antibody with cross-linker
# Experimental: PBMCs were obtained from peripheral blood of healthy donors. Isolation was performed by density centrifugation of blood on Ficoll (GE Healthcare, Cat #17-1440-03). The harvested PBMCs were used for the generation of activated T cells by incubating with PHA (3 μg/mL, SIGMA, Cat: L2769-10 mg) in RPMI-1640 medium (10% FBS, 1% Penicillin/Streptomycin and 2-Mercaptoethanol) for 2 days, followed by maintenance in medium containing recombinant human Interleukin-2 (5 ng/mL, R&D Systems, Cat. #202-IL-050) for an additional between about 4˜6 days.
# In addition to 15A7H, anti-PSGL-1 antibodies LH10, c43B6 and h9F9 were tested for the ability to induce cell death in activated T cells. The purpose of this study was to determine whether apoptosis inducing anti-PSGL-1 antibodies plus ruxolitinib would result in a better cytotoxic effect on activated T cells. The combinatorial effect was evaluated using Chou-Talalay median effect analysis using fixed ratios of antibodies and ruxolitinib in cytotoxicity assays. […]
# Cell apoptosis was determined as described in Example 1, and the combinatorial drug effect combination indexes (CI) were analyzed using CalcuSyn (Biosoft, Ferguson, MO, USA), which allows automated simulation of synergism or antagonism, where CI<1 indicates synergy, CI=1 indicates additivity, and CI>1 indicates antagonism.
molecule,measurement,setting,value
"N#CC[C@H](C1CCCC1)n1cc(-c2ncnc3[nH]ccc23)cn1 [RUXO, (R)-3-(4-(7H-pyrrolo[2,3-d]pyrimidin-4-yl)-1 H-pyrazol-1-yl)-3-cyclopentylpropanenitrile]",increase in apoptosis over background levels,activated T cells [1],minimal or no increases in apoptosis over background levels
same,effect on xenogeneic GVHD induced by human lymphocytes,[2],ameliorated xenogeneic GVHD
same,EC50,"activated T cells [3]; donor N084, RUXO + 15A7H, ratio 1.1:1, read-out: EC50RUXO Combination Treatment",201 nM
same,EC50,"activated T cells [3]; donor N084, RUXO + 15A7H, ratio 3.3:1, read-out: EC50RUXO Combination Treatment",373 nM
same,EC50,"activated T cells [3]; donor N084, RUXO alone, section ratio 1.1:1, read-out: EC50RUXO Single Treatment",4220 nM
same,EC50,"activated T cells [3]; donor N084, RUXO alone, section ratio 3.3:1, read-out: EC50RUXO Single Treatment",4220 nM
same,EC50,"activated T cells [3]; donor N089, RUXO + 15A7H, ratio 1.1:1, read-out: EC50RUXO Combination Treatment",394 nM
same,EC50,"activated T cells [3]; donor N089, RUXO + 15A7H, ratio 3.3:1, read-out: EC50RUXO Combination Treatment",479 nM
same,EC50,"activated T cells [3]; donor N089, RUXO alone, section ratio 1.1:1, read-out: EC50RUXO Single Treatment",2360 nM
same,EC50,"activated T cells [3]; donor N089, RUXO alone, section ratio 3.3:1, read-out: EC50RUXO Single Treatment",2000 nM
same,EC50,"activated T cells [3]; donor N102, RUXO + 15A7H, ratio 0.37:1, read-out: EC50RUXO Combination Treatment",165 nM
same,EC50,"activated T cells [3]; donor N102, RUXO + 15A7H, ratio 1.1:1, read-out: EC50RUXO Combination Treatment",499 nM
same,EC50,"activated T cells [3]; donor N102, RUXO + 15A7H, ratio 3.3:1, read-out: EC50RUXO Combination Treatment",1150 nM
same,EC50,"activated T cells [3]; donor N102, RUXO alone, section ratio 0.37:1, read-out: EC50RUXO Single Treatment",10100 nM
same,EC50,"activated T cells [3]; donor N102, RUXO alone, section ratio 1.1:1, read-out: EC50RUXO Single Treatment",10100 nM
same,EC50,"activated T cells [3]; donor N102, RUXO alone, section ratio 3.3:1, read-out: EC50RUXO Single Treatment",10100 nM
same,EC50,"activated T cells [3]; donor N103, RUXO + 15A7H, ratio 0.37:1, read-out: EC50RUXO Combination Treatment",266 nM
same,EC50,"activated T cells [3]; donor N103, RUXO + 15A7H, ratio 1.1:1, read-out: EC50RUXO Combination Treatment",554 nM
same,EC50,"activated T cells [3]; donor N103, RUXO + 15A7H, ratio 3.3:1, read-out: EC50RUXO Combination Treatment",1010 nM
same,EC50,"activated T cells [3]; donor N103, RUXO alone, section ratio 0.37:1, read-out: EC50RUXO Single Treatment",9170 nM
same,EC50,"activated T cells [3]; donor N103, RUXO alone, section ratio 1.1:1, read-out: EC50RUXO Single Treatment",9170 nM
same,EC50,"activated T cells [3]; donor N103, RUXO alone, section ratio 3.3:1, read-out: EC50RUXO Single Treatment",9170 nM
same,DRIRUXO (Dose-Reduction Index),"activated T cells [3]; donor N084, RUXO + 15A7H, ratio 1.1:1",20.9884
same,DRIRUXO (Dose-Reduction Index),"activated T cells [3]; donor N084, RUXO + 15A7H, ratio 3.3:1",11.3242
same,DRIRUXO (Dose-Reduction Index),"activated T cells [3]; donor N089, RUXO + 15A7H, ratio 1.1:1",6.0012
same,DRIRUXO (Dose-Reduction Index),"activated T cells [3]; donor N089, RUXO + 15A7H, ratio 3.3:1",4.1685
same,DRIRUXO (Dose-Reduction Index),"activated T cells [3]; donor N102, RUXO + 15A7H, ratio 0.37:1",61.2797
same,DRIRUXO (Dose-Reduction Index),"activated T cells [3]; donor N102, RUXO + 15A7H, ratio 1.1:1",20.2269
same,DRIRUXO (Dose-Reduction Index),"activated T cells [3]; donor N102, RUXO + 15A7H, ratio 3.3:1",8.7676
same,DRIRUXO (Dose-Reduction Index),"activated T cells [3]; donor N103, RUXO + 15A7H, ratio 0.37:1",34.4195
same,DRIRUXO (Dose-Reduction Index),"activated T cells [3]; donor N103, RUXO + 15A7H, ratio 1.1:1",16.5574
same,DRIRUXO (Dose-Reduction Index),"activated T cells [3]; donor N103, RUXO + 15A7H, ratio 3.3:1",9.0902
B1,cytotoxicity ability in activated T cells,activated T cells [4],had cytotoxicity ability
